Laboratory results: US20130095122A1, “Peptides or Antibodies Which Bind to Melanoma Inhibitory Activity (MIA) Protein” (priority 2010, published 2013)

Key:
MIA protein dimer = molecular target: T1, MIA protein dimer (Homo sapiens, UniProt Q16674); experiment: Western blot analysis of MIA dimer bands; format: biochemical; conditions: MIA preincubated with 1 μM peptide (FIG. 2B)
T1 construct: made in house; host or cells: cell-free Rapid Translation System RTS 500 E. coli HY Disulfite Kit (Roche)
T1 sequence (Q16674 25-131): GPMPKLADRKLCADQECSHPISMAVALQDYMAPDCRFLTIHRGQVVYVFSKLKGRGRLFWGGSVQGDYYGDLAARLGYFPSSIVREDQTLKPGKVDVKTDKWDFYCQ
Protocol: Protein samples were denaturated at 70° C. for 10 min after addition of reducing and denaturing Roti-Load buffer (Roth, Karlsruhe, Germany) and subsequently separated on sodium dodecyl sulfate 12.75% polyacrylamid gels (SDS-PAGE) (Invitrogen, Groningen, The Netherlands). In the multimerization studies, MIA protein (1 μg) was incubated with AR71 (2.5 μg) overnight at RT before being treated as described above. After transferring the proteins onto a polyvinylidene fluoride (PVDF) membrane (BioRad, Richmond, Va., USA), the membrane was blocked using 3% BSA/PBS for 1 h at RT and incubated with a 1:150 dilution of primary polyclonal rabbit anti MIA antibody (Biogenes, Berlin, Germany) in 3% BSA/PBS overnight at 4° C. After washing in PBS the membrane was incubated with a 1:2000 dilution of an […] coupled secondary antibody (Chemikon, Hofheim, Germany) for 2 h at RT. Finally, after washing steps, immunoreactions were visualized by nitro blue tetrazolium/5-bromo-4-chloro-3-indolyl phosphate (NBT/BCIP) (Invitrogen, Karlsruhe, Germany) staining.

Mel Im melanoma cells = experiment: Boyden chamber invasion assay (MIA activity); format: cell-based, human
Protocol: Invasion assays were performed in Boyden Chambers containing polycarbonate filters with 8-μm pore size (Neuro Probe, Gaithersburg, Md., USA) essentially as described previously.^13 Filters were coated with matrigel, a commercially available reconstituted basement membrane (diluted 1:3 in H2O; BD Bioscience, Bradford, Mass., USA). The lower compartment was filled with fibroblast-conditioned medium used as a chemo attractant. Mel Im melanoma cells were harvested by trypsinization for 2 min at RT, resuspended in DMEM without FCS at a density 2.5×10^4 cells/mL, and placed in the upper compartment of the chamber. Except for the control experiment with untreated cells and experiments where cells were only treated with the respective peptide, MIA was added to the cell suspension at a final concentration of 200 ng/mL. Peptide AR71 (sequence: Ac-FHWRYPLPLPGQ-NH2) was used at a final concentration of 1 μM. MIA expressing murine B16 melanoma cells stably co-transfected with Sig-AR71-HisTag containing pCMX-PL1 vector^27 and an antibiotic resistance comprising plasmid (pCDNA3), and the respective mock control were also investigated for their ability to migrate. Therefore, cells were harvested by trypsinization for 2 min at RT, resuspended in DMEM without FCS at a density 2.5×10^4 cells/mL, and placed in the upper compartment of the chamber. After incubation at 37° C. for 4 h filters were removed. Cells adhering to the lower surface of the filter were fixed, stained, and counted. Experiments were carried out in triplicates and repeated at least three times.

[1] = system: murine B16 melanoma cells; experiment: In vivo metastasis assay, wt B16 cells injected into spleen, i.v. AR71 treatment; set-up: species or system mice; conditions: i.v. 50 μg every 24 h
Protocol: Additionally, 1×10^5 wt mouse melanoma B16 cells suspended in a solution containing AR71 (1 mg/mL) and 0.9% NaCl, or NaCl alone for the control mice, respectively, were injected into the spleen of each animal (n=8 for treated mice, as well as for control without AR71). Peptide AR71 was injected i.v. (50 μg every 24 h). After nine days, the mice were sacrificed and the livers were excised. Following formalin fixation, tissues were embedded in paraffin. Afterwards, sections were prepared and stained using hematoxylin and eosin before being subjected to histological analysis.
Therefore, wild type murine B16 melanoma cells were injected into the spleen of C57B16 mice with the mice being subsequently treated with i.v. injections of AR71 (50 μg every 24 h). After nine days, the mice were sacrificed, the livers were resected and again tissue sections were prepared. […] Four representative histological liver sections (hematoxylin and eosin stained) of untreated and treated mice, respectively, are shown in FIG. 4E.

reduction of MIA dimer bands (MIA protein dimer): strong reduction of the dimer bands
Substance: Ac-FHWRYPLPLPGQ-NH2 [AR71, FHWRYPLPLPGQ]
neutralization of the MIA effect on cell invasion (Mel Im melanoma cells; MIA 200 ng/mL pre-incubated with peptide 1 μM, Mel Im cells (FIG. 2C)): complete neutralization of the effect caused by MIA | migratory behaviour of cells treated with peptide alone (Mel Im melanoma cells; peptide in absence of MIA, Mel Im cells): does not influence the migratory behaviour of melanoma cells | adverse effects on other organs and tissues ([1]; nine days): no adverse effects on other organs and tissues were observed | average number of metastases in the liver compared to untreated control mice ([1]; nine days (FIG. 4D)): significant reduction of the average number of metastases in the liver
